In a melting point compilation (Tetko et al.; mined from patent text by program, amines drawn as free bases though some values may be those of a salt):

SMILES	melting point [°C]
CCCNC(=O)N(Cc1ccc(Cl)cc1)C1CCCC1	103 to 105
NC1=NS(=O)N=C1NCCCN(Cc1cccs1)c1ccccn1 (stereo not given)	169 to 171
CC(C)(C)OC(=O)NC(Cc1ccccc1)C(O)CNCC(O)C(Cc1ccccc1)NC(=O)C(O)(CO)C(C)(C)C (stereo not given)	84 to 86
CCCc1c(OC(=S)N(C)C)ccc2c(C)c(CC(=O)OC)c(=O)oc12	172 to 173
Cc1ccc(OCC(O)CNC(C)(C)C)c(C2=NNC(=O)CC2)c1 (stereo not given)	126 to 128
CNC(=O)N1CCC(CN2CCC(NC(=O)c3cc(Cl)c(N)cc3OC)CC2)CC1	202 to 204
CCCOc1ccc2nc(NC(=O)OC)sc2c1	178 to 180
CCCCOc1cc(OCCCC)c(C(=O)O)c(C(F)(F)F)n1	90 to 93.5
Cc1cc(C)c(/C=C/[C@H]2C[C@H](O)CC(=O)O2)c(-c2ccc(F)c(CO)c2)c1 (relative stereo)	137 to 138
COC1(OC)SC=C(C)NC1=O	86 to 88
CCCCCCCCCC(=O)Oc1ccc2cc(C(=N)N)ccc2c1	165 to 168
CCCCCCc1cc(C(=O)O)c(N)s1	80 to 81
O=C(OC1CCCC1)c1cc([N+](=O)[O-])c(F)cc1Cl	44 to 45
COc1cc(CN2CCN(C[C@@H](C)O)CC2)ccc1-c1nc2c(N[C@H]3[C@@H](C(N)=O)[C@@H]4C=C[C@H]3C4)c(Cl)cnc2[nH]1	157 to 159
CCCCCCCCCCCCCCCCCc1cc(=O)[nH]c(NC(=N)Nc2ccccc2)n1	164
CC(C)C(=O)O[C@H]1[C@H](C)OC(=O)[C@@H](NC(=O)OC(C)(C)C)COC(=O)[C@@H]1Cc1ccc(F)cc1	58 to 66
COc1cc2ccc(C(=O)CCl)cc2cc1OC	137 to 140
CCS(=O)(=O)c1ccc(C(=O)O)c(Cl)c1O	188 to 192
CN(C)C(=O)N1CCc2ccc(S(=O)(=O)NC(=O)NC3CCCC3)cc2CC1	179 to 180
COc1ccn(O)c(=O)c1	174 to 175
COC(=O)C1=C(C)NC(C)=C(C(=O)OC(C)C)C1c1cccc([N+](=O)[O-])c1 (stereo not given)	142 to 144
C=CCNc1nc(NCC(=C)C)c2scc(C)c2n1	83
COC1=C(OC)C(=O)C2=C(CCC(CCOc3ccc4c(c3)OCO4)CC2)C1=O	75 to 78
CCCOc1cc(NC(=O)C[C@H]2O[C@H](c3cccc(OC)c3OC)c3cc(Cl)ccc3N(CC(C)(C)CO)C2=O)cc2cc(C(=O)O)oc12	175 to 177
CC(=O)OC1CSC(Oc2ccc3nnn(C)c3c2)C(OC(C)=O)C1OC(C)=O (stereo not given)	143

SMILES	melting point [°C]
COc1nc(OC)nc(OC(C(=O)O)C(C)(C)C)n1 (stereo not given)	37 to 40
CN(C)N1C(=O)c2ccccc2NS1(=O)=O	168
Nc1nc2sc(CCC3CCCCC3)nn2c(=O)c1[N+](=O)[O-]	249 to 251
O=[N+]([O-])c1cccc2[nH]ncc12	172 to 174
Cc1cc(OC(F)F)ccc1C(=O)O	117 to 119
CN(C)S(=O)(=O)Cc1ccccc1C(=O)O	112 to 119
CSC1CCC2C3CCC4=CC(=O)C=CC4(C)C3C(=O)CC12C (stereo not given)	180 to 183
Cn1cccc1CC(=O)O	97 to 100
CC(C)(F)c1nc[nH]c(=O)c1Cl	168 to 171
NC(=O)c1ccccc1OCCNCC(O)COc1nccnc1Cl (stereo not given)	132 to 133
COC1C=C(C)C(=O)CC(C)(C)C1OC(=O)Cc1csc(N)n1 (stereo not given)	116 to 117
CC(C)C(=O)NN(C)C	94 to 96
O=C(O)CCC(=O)OCc1ccccc1[N+](=O)[O-]	63 to 65
Cc1c(C)c2c(c(C)c1N)C(c1ccc(C3OCCO3)cc1)CO2 (stereo not given)	125 to 136
O=[N+]([O-])c1ccc(CN2CCCCc3ncccc32)cc1	231 to 233
Clc1ccccc1-c1cc[nH]n1	93
CCc1cccc2c(C(N)CO)c[nH]c12 (stereo not given)	84 to 86
CC(O)(c1ccc(F)cc1)C1CCNCC1 (stereo not given)	184 to 186
Oc1ccc(N=Nc2cccc(Cl)c2Cl)c(Cl)c1Cl	197 to 199
CCCC(=O)OCC(=O)C1(OC(=O)CC)CCC2C3CC(C)C4=CC(=O)CCC4(C)C3C(O)CC21C (stereo not given)	211
O=[N+]([O-])c1sc(-n2cccc2)nc1Cl	138 to 139
CN(C)c1n[nH]c(=O)n1N	205
Cn1c(=O)oc(=O)c2cc(F)ccc21	133
OCC12COC(O1)C(O)C(O)C2O (stereo not given)	166 to 168
COc1cc2c(cc1OC)C1(CCC2=O)CCC(=O)N(C)C1=O (stereo not given)	168 to 170

Results, then the compound that gave them:

melting point [°C]	SMILES
189 to 192	Cc1ccc(-c2ccc3c(c2)C=C(C(=O)N2CCC(NC(=O)C(F)(F)F)CC2)CCO3)cc1
129 to 131	Brc1ccc2c(c1)N=C(N1CCN(Cc3ccccc3)CC1)c1cccc3c1N2CC3
143 to 146	Cc1ccccc1C(=O)Nc1ccc(-n2nc(C(F)(F)F)cc2C2CC2)cc1
> 300	O=C(Cn1c(=O)c(=O)[nH]c2cc([N+](=O)[O-])c(-n3cccc3)cc21)NCc1ccccc1
129	O=C(N1CCCC1)C1(Cc2ccccc2)CCN(Cc2ccccc2)CC1
99 to 100	COc1cccc(Sc2cccc(F)c2C#N)c1
258 to 259	CCCCc1nc2ccc(C(=O)O)cc2n1Cc1ccc(-c2ccccc2-c2nnn[nH]2)cc1
108 to 110	Cc1ccc(C(=O)Cn2c3c(sc2=O)CCCC3)cc1
216 to 218	O=Cc1ccc(-c2cc(-c3c(-c4ccccn4)nc4ccccn34)ccn2)cc1
98 to 101	CCCCOCCOc1ccc(-c2ccc3c(c2)C=C(C(=O)Nc2ccc(SCc4n[nH]c(=O)n4CCC)cc2)CCN3CC(C)C)cc1
143 to 144	COc1ccc2c(c1)N(c1cccc(Cl)c1)C(=O)C2(C)NC(=O)OCc1ccccc1 (stereo not given)
158	CC(C)(C)Cn1cc(-c2ccc(Oc3ccccc3)cc2)c2c(N)ncnc21
72 to 74	CC(O)(CCBr)c1ccc(-c2ccc(F)cc2)cc1 (stereo not given)
181 to 182	FC(F)(F)c1cccc(CSc2nnc(-c3ccc4ncc(-c5ccccn5)n4c3)o2)c1
261	Cn1cc(C(=O)O)c(=O)c2c3ccc(F)c(N4CCN(c5cccc(C(F)(F)F)c5)CC4)c3ncc21
142 to 144	Cc1c(NC(=O)CC(C)(C)C)cc2c(c1C)OC(C)(C)C2(O)c1ccc2ccccc2c1 (stereo not given)
73 to 74	OCC=Cc1ccc(-c2cnc(CSCCOc3ccccc3)o2)cc1
108 to 109	C=C(C)C(=O)Oc1ccc(S(=O)(=O)ON=C2CCCc3ccccc32)cc1
115	CCOCCn1c(N(Cc2ccccc2)C2CCN(C(=O)OCC)CC2)nc2cccnc21
82 to 83	CS(=O)(=O)OCCCCc1ccc(OCc2coc(/C=C/c3ccccc3)n2)cc1
183 to 186	CCC(c1ccccc1)c1c(O)c2c(oc1=O)CCC2 (stereo not given)
124 to 125	CCCCOCCOc1ccc(-c2ccc3c(c2)C=C(C(=O)O)CCN3CC2CCCCC2)cc1
119 to 122	CC(=O)Oc1ccc(C=C2CCCc3cc(C)cnc32)cc1
250 to 253	CCc1cc2c(c(Cl)cc(=O)n2Cc2ccc(C(=O)O)cc2)c(CC)n1
45	O=C1c2ccc(OC(c3ccccc3)c3ccccc3)cc2OCC1Cc1cccnc1 (stereo not given)

melting point [°C]	SMILES
189 to 190	O=Cc1ccc(-c2nnc(-c3ccccc3[N+](=O)[O-])o2)cc1
189 to 190	O=C(O)c1cc(C(F)(F)F)cc(Cl)c1-n1cnc(C(F)(F)C(F)(F)F)cc1=O
> 300	O=C(O)c1ccc(C=Cc2cc(=O)cc(-c3ccccc3)o2)cc1
> 330	O=C1c2ccccc2-c2[nH]nc(-c3ccc(Cl)cc3)c21
195 to 196	Cc1cc(C(=O)O)ccc1Sc1ccc2c(c1)C(C)(C)CCC2(C)C
258 to 259	CC(C)(C)NS(=O)(=O)c1cccc(NC(=O)c2cnn3c(C4CC4)cc(-c4ccc(C(F)(F)F)cc4)nc23)c1
210 to 220	Cc1c2n(c3ccccc13)C(=O)N(Cc1ncn(C(c3ccccc3)(c3ccccc3)c3ccccc3)c1C)CC2
98 to 108	CCOC(=O)c1ccc(N=C(Nc2ccc(C(=O)OCC)cc2)c2ccccc2Cl)cc1
105 to 108	CN1CCC(c2c[nH]c3ccc(NC(=O)c4ccoc4)nc23)CC1
114 to 115	O=C1OCCC1=Cc1ccccc1OCC(O)CN1CCC(c2ccc(Cl)c(F)c2)CC1 (stereo not given)
131 to 133	CS(=O)(=O)Nc1cnccc1CCCOc1cccnc1Oc1cccc(Cl)c1
266 to 268	CCCn1nc2c(=O)[nH]c3ccccc3c2c1N
158 to 160	CN1CCc2cccc3c2C1Cc1ccc(O)c(O)c1-3 (stereo not given)
221 to 223	Cc1c(C#N)cc(C(C)(C)C)c(O)c1C(=O)Nc1ccc(S(=O)(=O)c2ccc(Br)cc2)cc1C(F)(F)F
204 to 206	C[C@H]1CCCN(C(=O)[C@@H]2Cc3cc(-c4ccccc4)ccc3N2c2ccc(=O)n(C)n2)C1
112 to 114	CC1CN(C2=Nc3ccccc3Oc3ccccc32)CC(C)N1 (stereo not given)
167 to 168	Cc1ccccc1NC(=O)CN1CC2CCC(C1)N2S(=O)(=O)c1cccc2nonc12
53 to 58	CC(C)N(CCSc1ccc(F)cc1)C(=O)Oc1ccccc1
230 to 232	COC(=O)c1cc(I)ccc1Nc1ccccc1C(=O)O
91 to 92	COC(=O)c1cc(OCCCCCCOc2ccc(-c3ccccc3)cc2)ccc1O
95.5 to 97	O=C(Cc1ccccc1NS(=O)(=O)C(F)(F)F)N1CCOCC1
179 to 180	CCN(CC)CCCNC(=O)Cn1ncc(-c2ccc(NS(C)(=O)=O)cc2)c1-c1ccccc1
108 to 112	Cc1cccc(-c2[nH]c(C(C)C)nc2-c2cccc(-c3cccc(NS(C)(=O)=O)c3)c2)n1
112	CCOC(=O)C1Cc2cc(-c3ccccc3)ccc2O1 (stereo not given)
117 to 119	CC(=O)c1cc(-c2ccncc2)sc1-c1ccncc1
